Literature values as cited in patent EP4209496A1, “NOVEL FLUORESCENT BODIPY COMPOUNDS DISPLAYING ABSORPTION AND EMISSION IN THE NIR REGION” (Université de Strasbourg, priority 2022, dated 2023).
Like-named read-outs stand apart in the source and are kept apart here.

Row | SMILES | λem (solvent: PBS buffer) [nm] | φf (solvent: PBS buffer) [%] | λem (solvent: biological serum) [nm] | φf (solvent: biological serum) [%]
1 | CCN1C(=CC=CC=CC=CC2=[N+](CCCCCC(=O)O)c3ccc(S(=O)(=O)O)cc3C2(C)C)C(C)(C)c2cc(S(=O)(=O)[O-])ccc21 [Cy7] | 774 | 28 |  | 
2 | CC1(C)C(=CC=C2CCCC(C=CC3=[N+](CCCCCC(=O)[O-])c4ccc(S(=O)(=O)[O-])cc4C3(C)C)=C2Oc2ccc(S(=O)(=O)[O-])cc2)N(CCCCS(=O)(=O)[O-])c2ccc(S(=O)(=O)[O-])cc21.[Na+].[Na+].[Na+].[Na+] [IRDye800CW] |  |  | 789 | 12
3 | CC1(C)C(/C=C/C=C/C=C/C=C2\N(CCCCS(=O)(=O)O)c3ccc4ccccc4c3C2(C)C)=[N+](CCCCS(=O)(=O)[O-])c2ccc3ccccc3c21 [Indocyanine green] |  |  | 822 | 9
4 | CN(C)c1ccc2nc3ccc(=[N+](C)C)cc-3sc2c1 [Methylene blue] |  |  | 686 | 10
